# Columns and labels:
# Solubility Protocol = assay type: physicochemical; conditions: aqueous buffer, thermodynamic from solid; pH 7.4, 0.1 M sodium phosphate buffer
# Procedure: About 5 mg of a compound was mixed with 500 μL of pH 7.4, 0.1 M sodium phosphate buffer. The mixture was adjusted to the original pH of 7.4 and then mixed overnight or longer via rotary mixing. The sample was checked for pH and then filtered through a 0.45 μm filter. If the pH drifted away, the sample was adjusted to its original pH and mixed for at least 15 minutes before filtration. The filtrate was analyzed using HPLC.
# PDE4B = biological target: T1, PDE4B (Homo sapiens, UniProt Q07343); assay: PDE/AK Biological Activity Assay (coupled PDE/adenylate kinase bioluminescent assay); assay type: biochemical; conditions: catalytic domain of PDE4B, read-out: PDE4 Enzyme IC50
# T1 construct: hex-histidine (His6) (N); made in house
# Description: Phosphodiesterases regulate the activity of the second messenger cyclic adenosine monophosphate (cAMP) by hydrolyzing cAMP to adenosine monophosphate (AMP). We developed a coupled PDE/AK bioluminescent high-throughput assay to measure the activity of phosphodiesterases. In the PDE/AK assay, the AMP produced from the hydrolysis of cAMP by phosphodiesterase is converted to adenosine diphosphate (ADP) by the phosphotransferase activity of adenylate kinase (also known as ADK or myokinase). Adenylate kinase will catalyze the conversion of 1 mole of AMP and 1 mole of ATP into 2 moles of ADP. Thus the conversion of AMP to ADP will result in the subsequent loss of ATP. The decrease in ATP concentration can be monitored as light output using luciferase in a reaction that requires ATP to produce light. The PDE/AK assay uses luciferase, which catalyzes the production of light from ATP present in the reaction mix. The amount of emitted light is inversely proportional to the level of AMP present in the reaction. Test compounds are incubated with the phosphodiesterases and phosphodiesterase inhibitors will decrease the rate of cAMP hydrolysis and decrease the subsequent production of AMP. Thus phosphodiesterase inhibitors will decrease the conversion of ATP to ADP and result in the greatest emission of light.
# Compounds may be screened for functional potency in in vitro biochemical assays for their ability to inhibit the activity of phosphodiesterase (PDE) enzymes. A coupled PDE/AK assay was utilized to measure the inhibitory activity of compounds on PDE isoforms. The catalytic domain of PDE4B was fused to an amino-terminus hex-histidine affinity tag and purified. PDE4B enzyme was incubated with compounds for 10 minutes. Cyclic AMP substrate, ATP and adenylate kinase were then added to the PDE enzyme mix and incubated for 45 minutes at room temperature. A commercial ATP detection assay, Perkin Elmer's easyLite ATP detection reagent, was then added to measure the relative amount of ATP present in the reaction. After 10 minute incubation, the luminescent signal was quantitated with either the Perkin Elmer Viewlux or Molecular Devices Acquest or Analyst. Roflumilast and Rolipram are the positive controls used in the assay.
# T1 sequence (Q07343 330-659 limits assumed, species assumed): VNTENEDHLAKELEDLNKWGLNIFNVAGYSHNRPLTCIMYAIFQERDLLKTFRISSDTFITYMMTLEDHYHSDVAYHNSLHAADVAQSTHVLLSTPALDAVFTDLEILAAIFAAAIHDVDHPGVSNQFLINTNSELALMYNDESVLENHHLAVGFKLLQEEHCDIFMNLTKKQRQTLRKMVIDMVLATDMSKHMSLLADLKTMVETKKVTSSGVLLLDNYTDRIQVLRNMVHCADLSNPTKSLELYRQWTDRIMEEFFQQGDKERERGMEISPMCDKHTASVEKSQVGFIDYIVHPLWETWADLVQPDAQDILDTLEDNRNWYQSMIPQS
solubility (Solubility Protocol),IC50 (PDE4B),Compound
≥ 1000 µg/mL,< 1 µM,"COc1ccc2c(Nc3c(Cl)cncc3Cl)cc(=O)[nH]c2c1OCCCCCO [Example 42, 4-(3,5-dichloropyridin-4-ylamino)-8-(5-hydroxypentyloxy)-7-methoxyquinolin-2(1H)-one]"
≥ 1000 µg/mL,< 1 µM,"COc1ccc2c(Nc3c(Cl)cncc3Cl)cc(=O)[nH]c2c1OCCCCCN1CCN(C)CC1 [Example 47, 4-(3,5-dichloropyridin-4-ylamino)-7-methoxy-8-(5-(4-methylpiperazin-1-yl)pentyloxy)quinolin-2(1H)-one]"
≥ 1000 µg/mL,< 1 µM,"COc1ccc2c(Nc3c(Cl)cncc3Cl)cc(=O)[nH]c2c1OCCCCCN1CCOCC1 [Example 49, 4-(3,5-dichloropyridin-4-ylamino)-7-methoxy-8-(5-morpholinopentyloxy)quinolin-2(1H)-one]"
≥ 1000 µg/mL,< 1 µM,"COc1ccc2c(Nc3c(Cl)cncc3Cl)cc(=O)[nH]c2c1OCC(N)=O [Example 50, 2-(4-(3,5-dichloropyridin-4-ylamino)-7-methoxy-2-oxo-1,2-dihydroquinolin-8-yloxy)acetamide]"
≥ 1000 µg/mL,< 1 µM,"COc1ccc2c(Nc3c(Cl)cncc3Cl)cc(=O)[nH]c2c1OCCCC(=O)O [Example 51, 4-(4-(3,5-dichloropyridin-4-ylamino)-7-methoxy-2-oxo-1,2-dihydroquinolin-8-yloxy)butanoic acid]"
≥ 1000 µg/mL,< 1 µM,"COc1ccc2c(Nc3c(Cl)cncc3Cl)cc(=O)[nH]c2c1OCCCCCCCCC(=O)O [Example 55, 9-(4-(3,5-dichloropyridin-4-ylamino)-7-methoxy-2-oxo-1,2-dihydroquinolin-8-yloxy)nonanoic acid]"
≥ 1000 µg/mL,< 1 µM,"COc1ccc2c(Nc3c(Cl)cncc3Cl)cc(=O)[nH]c2c1OCCCn1ccnc1 [Example 62, 8-(3-(1H-imidazol-1-yl)propoxy)-4-(3,5-dichloropyridin-4-ylamino)-7-methoxyquinolin-2(1H)-one]"
≥ 1000 µg/mL,< 1 µM,"COc1ccc2c(Nc3c(Cl)cncc3Cl)cc(=O)[nH]c2c1OCCCCC(=O)N[C@@H](CO)C(=O)O [Example 64, (S)-2-(5-(4-(3,5-dichloropyridin-4-ylamino)-7-methoxy-2-oxo-1,2-dihydroquinolin-8-yloxy)pentanamido)-3-hydroxypropanoic acid]"
≥ 1000 µg/mL,< 1 µM,"COc1ccc2c(Nc3c(Cl)cncc3Cl)cc(=O)[nH]c2c1OCCCc1nn[nH]n1 [Example 67, 8-(3-(2H-tetrazol-5-yl)propoxy)-4-(3,5-dichloropyridin-4-ylamino)-7-methoxyquinolin-2(1H)-one]"
≥ 1000 µg/mL,< 1 µM,"COCCOCCOCCCOc1c(OC)ccc2c(Nc3c(Cl)cncc3Cl)cc(=O)[nH]c12 [Example 70, 4-(3,5-dichloropyridin-4-ylamino)-7-methoxy-8-(3-(2-(2-methoxyethoxy)ethoxy)propoxy)quinolin-2(1H)-one]"
≥ 1000 µg/mL,< 1 µM,"COc1ccc2c(Nc3c(Cl)cncc3Cl)cc(=O)[nH]c2c1OCCCCCCc1nn[nH]n1 [Example 71, 8-(6-(2H-tetrazol-5-yl)hexyloxy)-4-(3,5-dichloropyridin-4-ylamino)-7-methoxyquinolin-2(1H)-one]"

# The remaining lines, values behind:
Compound,solubility (Solubility Protocol),IC50 (PDE4B)
"COc1ccc2c(Nc3c(Cl)cncc3Cl)cc(=O)[nH]c2c1OCCCCO [Example 41, 4-(3,5-dichloropyridin-4-ylamino)-8-(4-hydroxybutoxy)-7-methoxyquinolin-2(1H)-one]",≥ 1000 µg/mL,< 1 µM
"COc1ccc2c(Nc3c(C)cncc3C)cc(=O)[nH]c2c1OCCCCCN(C)C [Example 45, 8-(5-(dimethylamino)pentyloxy)-4-(3,5-dimethylpyridin-4-ylamino)-7-methoxyquinolin-2(1H)-one]",≥ 1000 µg/mL,< 1 µM
"COc1ccc2c(Nc3c(Cl)cncc3Cl)cc(=O)[nH]c2c1OCCCCC(=O)N[C@@H](CC(=O)O)C(=O)O [Example 66, (S)-2-(5-(4-(3,5-dichloropyridin-4-ylamino)-7-methoxy-2-oxo-1,2-dihydroquinolin-8-yloxy)pentanamido)succinic acid]",≥ 1000 µg/mL,< 1 µM
"COc1ccc2c(Nc3c(Cl)cncc3Cl)cc(=O)[nH]c2c1OCCCCc1nn[nH]n1 [Example 68, 8-(4-(2H-tetrazol-5-yl)butoxy)-4-(3,5-dichloropyridin-4-ylamino)-7-methoxyquinolin-2(1H)-one]",≥ 1000 µg/mL,< 1 µM
"COc1ccc2c(Nc3c(C)cncc3C)cc(=O)[nH]c2c1OCCCCC(=O)O [Example 72, 5-(4-(3,5-dimethylpyridin-4-ylamino)-7-methoxy-2-oxo-1,2-dihydroquinolin-8-yloxy)pentanoic acid]",≥ 1000 µg/mL,< 1 µM
"COc1ccc2c(Nc3c(C)cncc3C)cc(=O)[nH]c2c1OCCCCCC(=O)O [Example 73, 6-(4-(3,5-dimethylpyridin-4-ylamino)-7-methoxy-2-oxo-1,2-dihydroquinolin-8-yloxy)hexanoic acid]",≥ 1000 µg/mL,< 1 µM
"COc1ccc2c(Nc3c(C)cncc3C)cc(=O)[nH]c2c1OCCCCCCC(=O)O [Example 74, 7-(4-(3,5-dimethylpyridin-4-ylamino)-7-methoxy-2-oxo-1,2-dihydroquinolin-8-yloxy)heptanoic acid]",≥ 1000 µg/mL,< 1 µM
"COc1ccc2c(Nc3c(C)cncc3C)cc(=O)[nH]c2c1OCCCCCCCC(=O)O [Example 75, 8-(4-(3,5-dimethylpyridin-4-ylamino)-7-methoxy-2-oxo-1,2-dihydroquinolin-8-yloxy)octanoic acid]",≥ 1000 µg/mL,< 1 µM
"COc1ccc2c(Nc3c(C)cncc3C)cc(=O)[nH]c2c1OCCCCCCCCC(=O)O [Example 76, 9-(4-(3,5-dimethylpyridin-4-ylamino)-7-methoxy-2-oxo-1,2-dihydroquinolin-8-yloxy)nonanoic acid]",< 1000 µg/mL,< 1 µM
"COc1ccc2c(Nc3c(C)cncc3C)cc(=O)[nH]c2c1OCCCn1ccnc1 [Example 77, 8-(3-(1H-imidazol-1-yl)propoxy)-4-(3,5-dimethylpyridin-4-ylamino)-7-methoxyquinolin-2(1H)-one]",< 1000 µg/mL,< 1 µM
"COc1ccc2c(Nc3c(C)cncc3C)cc(=O)[nH]c2c1OCCCCCCn1ccnc1 [Example 80, 8-(6-(1H-imidazol-1-yl)hexyloxy)-4-(3,5-dimethylpyridin-4-ylamino)-7-methoxyquinolin-2(1H)-one]",≥ 1000 µg/mL,< 1 µM

# Source: patent US8138205B2, “Heteroarylalkoxy-substituted quinolone inhibitors of PDE4” (Kalypsys, Inc., priority 2006, dated 2012)
